In patent US8658639B2, “N-substituted-cyclic amino derivative” (Dainippon Sumitomo Pharma Co., Ltd, priority 2009, dated 2014):

Experiments:
[1] = tested on: abdominal skin of CD male rats; test: Testing for irritation by single subcutaneous administration to rats; format: in vivo; parameters: key: — No inflammation; Amount of Inflammation: * < ** < *** < ****; Amount of Inflammation: * < ** < *** < ****; Amount of Inflammation: * < ** < *** < ****; Amount of Inflammation: * < ** < *** < ****; settings: single subcutaneous administration 0.1 ml, 2% in DMSO and saline
Method: Experiment 2: Testing for Irritation by Single Subcutaneous Administration to Rats
A test compound was measured and dissolved in DMSO and a saline solution in a concentration of 2%.

[2] = molecular target: T1, Recombinant human renin (Homo sapiens, UniProt P00797); test: In vitro renin inhibitory activity assay; format: biochemical; settings: recombinant human renin 4.2 ng/mL, substrate 4 μM, 37° C., one hour, pH 7.4
T1 sequence (P00797 67-406): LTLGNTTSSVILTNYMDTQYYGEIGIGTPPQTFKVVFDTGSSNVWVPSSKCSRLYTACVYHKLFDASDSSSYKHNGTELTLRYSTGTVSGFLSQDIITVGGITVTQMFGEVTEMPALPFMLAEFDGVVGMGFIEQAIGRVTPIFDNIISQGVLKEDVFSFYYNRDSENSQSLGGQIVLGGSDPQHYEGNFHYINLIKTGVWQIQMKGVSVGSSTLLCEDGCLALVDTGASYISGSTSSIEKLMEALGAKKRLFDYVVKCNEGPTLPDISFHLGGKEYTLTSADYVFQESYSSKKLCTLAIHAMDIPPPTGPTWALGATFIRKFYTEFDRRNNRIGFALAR
Method: Experiment 1: In Vitro Renin Inhibitory Activity Assay
Recombinant human renin (4.2 ng/mL) was reacted in 0.1M HEPES buffer (pH 7.4) containing 0.1M NaCl, 1 mM EDTA and 0.1 mg/mL BSA together with a substrate and a test compound at 37° C. for one hour. As the substrate, Arg-Glu(EDANS)-Ile-His-Pro-Phe-His-Leu-Val-Ile-His-Thr-Lys(DABCYL)-Arg (SEQ ID NO: 1) or DABCYL-γ-Abu-Ile-His-Pro-Phe-His-Leu-Val-Ile-His-Thr-EDANS (SEQ ID NO: 2) was added in such an amount so that the final concentration thereof became 4 μM. The elevated fluorescence intensity at the exciting wavelength 340 nm and the fluorescence wavelength 500 nm was measured by a fluorescence plate reader. The concentration of a test compound to be needed to inhibit an enzyme activity in the presence of a test compound in several concentrations by 50% was calculated as an IC50 value. The test compounds were diluted in DMSO and used in this Experiment.

| Structure (SMILES) | IC50 [2] | Observation at Administration Site, One day after administration [1] | Observation at Administration Site, Three days after administration [1] |
| --- | --- | --- | --- |
| CCC(=O)NCCN1C(=O)C2(CCC2)Oc2cc(C)c(C(=O)N(C(C)C)[C@@H]3CCCNC3)cc21.Cl [Comparative Example 3, N-isopropyl-7-methyl-3-oxo-N-[(3R)-piperidin-3-yl]-4-[2-(propionylamino)ethyl]-3,4-dihydrospiro[1,4-benzoxazine-2,1′-cyclobutane]-6-carboxamide hydrochloride, reference compound] |  | **** | **** |
| COCCCCN1C(=O)C(C)(C)Oc2cc(C(F)(F)F)c(C(=O)N(C(C)C)[C@@H]3CCCNC3)cc21.Cl [Comparative Example 1, 4-(4-methoxybutyl)-2,2-dimethyl-3-oxo-N-[(3R)-3-piperidinyl]-N-(2-propanyl)-7-(trifluoromethyl)-3,4-dihydro-2H-1,4-benzoxazine-6-carboxamide hydrochloride, reference compound] |  | *** | **** |
| CCC(=O)NCCN1C(=O)C2(CCC2)Oc2cc(C)c(C(=O)N(C(C)C)[C@@H]3CCCN(C(=O)O[C@H](C)OC(=O)C(C)C)C3)cc21 [Example 82] | 530 nM | ** | — |
| CCC(=O)NCCN1C(=O)[C@](C)(COC)Oc2cc(C)c(C(=O)N(C(C)C)[C@@H]3CCCN(C(=O)O[C@H](C)OC(=O)C(C)C)C3)cc21 [Example 93] | 1900 nM | — | — |
| CCC(=O)NCCN1C(=O)C(C)(C)Oc2cc(C(F)(F)F)c(C(=O)N(C(C)C)[C@@H]3CCCNC3)cc21.Cl [Comparative Example 2, 2,2-dimethyl-3-oxo-N-[(3R)-3-piperidinyl]-4-[2-(propanoylamino)ethyl]-N-(2-propanyl)-7-(trifluoromethyl)-3,4-dihydro-2H-1,4-benzoxazine-6-carboxamide hydrochloride, reference compound] |  | **** | **** |

Now from value to molecule, other results behind:

| IC50 [2] | Structure (SMILES) | Observation at Administration Site, One day after administration [1] | Observation at Administration Site, Three days after administration [1] |
| --- | --- | --- | --- |
| 250 nM | CCC(=O)NCCN1C(=O)C(C)(C)Oc2cc(C)c(C(=O)N(C(C)C)[C@@H]3CCCN(C(=O)O[C@H](C)OC(=O)C(C)C)C3)cc21 [Example 67] | ** | — |
| 9.6 nM | CCC(=O)NCCN1C(=O)C(C)(C)Oc2cc(C)c(C(=O)N(C(C)C)C3CCCN(C(=O)OC(C)OC(=O)C4CCOCC4)C3)cc21 (single isomer, unassigned) [Example 87] | — | — |
| 5.3 nM | CCC(=O)NCCN1C(=O)C2(CCC2)Oc2cc(C)c(C(=O)N(C(C)C)C3CCCN(C(=O)OC(C)OC(=O)c4ccc(C)cc4)C3)cc21 (stereo not drawn) [Example 79, 1-{[(4-Methylphenyl)carbonyl]oxy}ethyl 3-[({7-methyl-3-oxo-4-[2-(propanoylamino)ethyl]-3,4-dihydrospiro[1,4-benzoxazine-2,1′-cyclobutan]-6-yl}carbonyl)(2-propanyl)amino]-1-piperidinecarboxylate] | *** | *** |
| 1.7 nM | CCC(=O)NCCN1C(=O)C2(CCC2)Oc2cc(C)c(C(=O)N(C(C)C)[C@@H]3CCCN(C(=O)OCc4oc(=O)oc4C)C3)cc21 [Example 81] | ** | — |
| 5.1 nM | CCC(=O)NCCN1C(=O)C(C)(C)Oc2cc(C)c(C(=O)N(C(C)C)[C@@H]3CCCN(C(=O)OCc4oc(=O)oc4C)C3)cc21 [Example 2, (5-Methyl-2-oxo-1,3-dioxol-4-yl)methyl (3R)-3-[isopropyl({2,2,7-trimethyl-3-oxo-4-[2-(propionylamino)ethyl]-3,4-dihydro-2H-1,4-benzoxazin-6-yl}carbonyl)amino]piperidine-1-carboxylate] | — | — |
